{"source": "patent US20130041005A1", "about": "“PHARMACEUTICAL COMPOSITIONS COMPRISING NEUROPILIN INHIBITORS, AND THEIR USE FOR THE PREVENTION AND/OR TREATMENT OF ANGIOGENIC DISORDERS AND CANCERS” (TRAGEX PHARMA, priority 2011, published 2013)", "key": {"[1]": {"system": "BT-474", "test": "WST-1 proliferation assay, BT-474", "assay_type": "cell-based", "details": "Homo sapiens; Breast BT-474, 72 h; read-out: Anti-proliferative activity IC50 (μM) ± SD", "text": "(§1) Several cancer cell lines were used: breast cancer cells (MDA-MB-231 (ATTCC® Number HTB-26™), MDA-MB-436 (ATTCC® Number HTB-130™), MDA-MB-438, BT-474 (ATTCC® Number HTB-20™)); cervical cancer cells (HeLa (ATTCC® Number CCL-2™)); colon cancer cells (HCT-116 (ATTCC® Number CCL-247™) and HT-29 (ATTCC® Number HTB-38™)); osteosarcoma cells (U2OS (ATTCC® Number HTB-96™)); pancreas cancer cells (MIA PaCa-2 (ATTCC® Number CRL-1420™) and Panc-10.5 (ATTCC® Number CRL-2547™)); prostate cancer cells (PC-3 (ATTCC® Number CRL-1435™) and LNCaP (ATTCC® Number CRL-1740™)); brain cancer cells (U87 glioblastoma (ATTCC® Number HTB-14™) and SH-SYSY neuroblastoma (ATTCC® Number CRL-2266™)). […]\n(§2) After observation of cells under the microscope, old media were removed and the adherent cells washed gently twice with PBS (Phosphate Buffer Saline, —Ca^2+, —Mg^2+, Lonza cat no: 17-512F/12). […] 50 μl of this solution were transferred in 20 μl of isotonic solution and the cells were counted by count cellular (Beckman Coulter). […]\n(§3) The cell proliferation WST-1 assay is a colorimetric assay for the quantification of cell proliferation and viability, based on the enzymatic cleavage of the tetrazolium salt WST-1 added to the culture medium, to a water soluble colored formazan dye, detected by absorbance at 450 nm, by mitochondrial succinate-tetrazolium reductase in viable cells. […]"}, "[2]": {"system": "NCI-H460", "test": "WST-1 proliferation assay, NCI-H460", "assay_type": "cell-based", "details": "Homo sapiens; Lung NCI-H460; read-out: Anti-proliferative activity IC50 (μM) ± SD", "procedure": "All the cancer cell lines were maintained in cultured in DMEM GlutaMAX™ (GIBCO Invitrogen, France, cat no 31966047) enhanced with 10% foetal bovine serum (GIBCO Invitrogen, France, cat no 10270-106) and 1% penicillin G/streptomycin (GIBCO Invitrogen, France, cat no 15140-122). Only Panc-10.5 cells were cultivated in RPMI 1640 medium (Gibco) supplemented with 2 mM L-glutamine, 1.5 g/L sodium bicarbonate, 4.5 g/L glucose, 10 mM HEPES, 1 mM sodium pyruvate, 10 Units/ml human insulin, […] (SVF): 15% (75 ml in 500 ml of medium).\nCells were grown as subconfluent monolayer and cultured in 75 cm^2 flasks at 37° C., 5% CO2 in a humidified atmosphere, and medium was changed every two days. […]\nas §3\nAfter an incubation period of 72 h, at day 4, were prepared the 19 ml medium with reagent WST-1 1 ml ([…]). […] The cells were incubated at 37° C. in a humidified atmosphere of 5% CO2 for 1 h 30 and the absorbance at 450-655 nm was measured by Microplate Manager 5.2 (Bio-Rad)."}, "[3]": {"system": "breast cancer cells (MDA-MB-231)", "test": "Motility assay (videomicroscopy), MDA-MB-231", "assay_type": "cell-based, Human", "details": "IC50 concentration, 24 h (FIG. 6)", "procedure": "The dishes were placed in an enclosed warming incubator on the motorized stage of a computer-controlled Eclipse Ti inverted microscope (Nikon Instruments Europe) equipped with a CCD Cool-SNAP HQ2 camera (Roper Scientific, USA) and a PC workstation. The incubator allowed samples to be kept at 37° C. in a humidified atmosphere containing 5% CO2, 95% air. Phase images were recorded at 100× every 5 min simultaneously over several fields from 0 till 24 h (288 frames). Cell motility was tracked and analyzed for at least 25 cells in each field over three independent experiments. The total distance of migration and the speed of migration were analyzed. The degree of persistence of movement was defined as the ratio between the linear distance and the total distance covered by the cells. Image acquisition and analyses were carried out using Metamorph 7 software (Universal Imaging)."}, "[4]": {"system": "cancer cell lines", "test": "wst-1 cytotoxic test, all tested cancer cell lines", "assay_type": "cell-based, Human", "details": "breast, colon, pancreas, cervical, prostate or brain cancer or osteosarcoma", "text": "as §1, §2, §3"}, "[5]": {"system": "HeLa", "test": "WST-1 proliferation assay, HeLa", "assay_type": "cell-based", "details": "Homo sapiens"}, "[6]": {"system": "HCT-116", "test": "WST-1 proliferation assay, HCT-116", "assay_type": "cell-based", "details": "Homo sapiens; HCT-116, 0.05 μM"}}, "data": [{"smiles": "Cc1ccc(-c2nc3ccccc3[nH]2)cc1NC(=S)NC(=O)c1ccc2c(c1)OCCO2", "note": "[Compound 1, N-[5-(1H-benzimidazol-2-yl)-2-methylphenyl]-N′-(2,3-dihydro-1,4-benzodioxin-6-ylcarbonyl)thiourea]", "values": [{"measurement": "IC50", "setting": "[1]", "result": 2, "unit": "µM"}, {"measurement": "IC50", "setting": "[2]", "result": "0.5 ± 0.09", "unit": "µM"}, {"measurement": "motility (migration speed) of cancer cells", "setting": "[3]", "result": "significant anti-migratory effect"}, {"measurement": "cytotoxicity for all the tested cancer cell lines", "setting": "[4]", "result": "cytotoxic for all the tested cancer cell lines"}, {"measurement": "inhibition at 0.05 µM", "setting": "[5]", "result": 4, "unit": "%"}, {"measurement": "inhibition at 0.05 µM", "setting": "[6]", "result": 0, "unit": "%"}]}, {"smiles": "O=C(NC(=S)Nc1cccc(-c2nc3ccccc3[nH]2)c1)c1ccc2c(c1)OCCO2", "note": "[Compound 2, N-[3-(1H-benzimidazol-2-yl)phenyl]-N′-(2,3-dihydro-1,4-benzodioxin-6-ylcarbonyl)thiourea]", "values": [{"measurement": "IC50", "setting": "[1]", "result": "1.6 ± 0.06", "unit": "µM"}, {"measurement": "IC50", "setting": "[2]", "result": "0.3 ± 0.04", "unit": "µM"}, {"measurement": "motility (migration speed) of cancer cells", "setting": "[3]", "result": "significant anti-migratory effect"}, {"measurement": "cytotoxicity for all the tested cancer cell lines", "setting": "[4]", "result": "cytotoxic for all the tested cancer cell lines"}, {"measurement": "inhibition at 0.05 µM", "setting": "[5]", "result": 49, "unit": "%"}, {"measurement": "inhibition at 0.05 µM", "setting": "[6]", "result": 25, "unit": "%"}]}]}
